In BindingDB's records for doi:10.1021/acs.jmedchem.6b00705 (Leiden Institute of Chemistry, 2016) one finds IC50 data, which are given here for eight compounds.

For assay [1], the target named is Proteasome subunit beta type-2 (Homo sapiens, UniProt P49721). As to the kind of experiment: Inhibition of catalytic activity of constitutive proteasome 20s subunit beta2 in human Raji cells incubated for 1 hr by BODIPY(FL)-LU-112 probe based competitive activity based protein profiling assay.
Assay [2] can be described thus: Inhibition of catalytic activity of immunoproteasome 20s subunit beta2 in human Raji cells incubated for 1 hr by BODIPY(FL)-LU-112 probe based competitive activity based protein profiling assay.

Turning to `CC1=C(C(=O)N[C@H](C)C(=O)N[C@@H](Cc2c[nH]c3ccccc23)C(=O)N[C@@H](CC2CCCCC2)C(=O)[C@@]2(C)CO2)Cc2ccccc21`, the 50% inhibitory concentration (IC50) in assay [1] and in assay [2] was more than 1000 nM throughout. `COc1ccc(C[C@H](NC(=O)[C@H](Cc2ccccc2)N=[N+]=[N-])C(=O)N[C@@H](Cc2ccccc2)C(=O)N[C@@H](CC(C)C)C(=O)[C@@]2(C)CO2)cc1` had a concentration for half-maximal inhibition (IC50) in assay [1] of 110 nM. In the case of `CC(C)C[C@H](NC(=O)CN1CCOCC1)C(=O)N[C@@H](C[C@H]1CC[C@H](C2CCCCC2)CC1)C(=O)N[C@@H](Cc1ccccc1)C(=O)N[C@@H](C)C(=O)[C@@]1(C)CO1`, the 50% inhibitory concentration (IC50) in assay [1] and in assay [2] was more than 100000 nM in each case.

On to `C[C@H](NC(=O)[C@H](Cc1ccccc1)NC(=O)[C@H](C[C@H]1CC[C@@H](c2ccccc2)CC1)NC(=O)[C@H](Cc1ccccc1)N=[N+]=[N-])C(=O)[C@@]1(C)CO1`, for which the results for the IC50 in assay [1] and in assay [2] were more than 100000 nM and 300 nM, respectively. With `CC(C)C[C@H](NC(=O)[C@H](Cc1ccccc1)NC(=O)[C@H](CCc1ccccc1)NC(=O)[C@H](Cc1ccccc1)N=[N+]=[N-])C(=O)[C@@]1(C)CO1`, in assay [1], the IC50 came to 60 nM.

`CC(C)C[C@H](NC(=O)[C@H](Cc1ccccc1)NC(=O)[C@H](CC1CCC(C)CC1)NC(=O)[C@H](Cc1ccccc1)N=[N+]=[N-])C(=O)[C@@]1(C)CO1` (some centres not stated) gave an IC50 in assay [1] of 46 nM. With `C[C@H](NC(=O)[C@H](Cc1ccccc1)NC(=O)[C@H](C[C@H]1CC[C@H](c2ccccc2)CC1)NC(=O)[C@H](Cc1ccccc1)N=[N+]=[N-])C(=O)[C@@]1(C)CO1`, the concentration for half-maximal inhibition (IC50) in assay [1] and in assay [2] was more than 100000 nM each time. Turning to `CC(C)C[C@H](NC(=O)[C@H](Cc1ccccc1)NC(=O)[C@H](Cc1ccccc1)NC(=O)[C@H](Cc1ccccc1)N=[N+]=[N-])C(=O)[C@@]1(C)CO1` [(S)-2-azido-N-((S)-1-((S)-1-((S)-4-methyl-1-((R)-2-methyloxiran-2-yl)-1-oxopentan-2-ylamino)-1-oxo-3-phenylpropan-2-ylamino)-1-oxo-3-phenylpropan-2-yl)-3-phenylpropanamide], in assay [1], the IC50 amounted to 66 nM.

As usually defined, the IC50 is the concentration at which inhibition is half-maximal. A higher IC50 goes with a need for much substance.
